Measured values as given in ChEMBL document CHEMBL4028801, “A multifactorial approach to hepatobiliary transporter assessment enables improved therapeutic compound development” (Toxicol Sci, 2013).
pIC50: −log10 of the molar value.

Assays:
Bile salt export pump = Bile salt export pump (Homo sapiens, UniProt O95342); assay: Inhibition of human BSEP overexpressed in Sf9 cell membrane vesicles assessed as uptake of [3H]-taurocholate in presence of ATP measured after 15 to 20 mins by membrane vesicle transport assay; assay type: ADME, cell-based
[1] = target: ATP-binding cassette sub-family C member 2 (Homo sapiens, UniProt Q92887); assay: Inhibition of human MRP2 overexpressed in Sf9 cell membrane vesicles assessed as uptake of [3H]-estradiol-17beta-D-glucuronide in presence of ATP and GSH measured after 20 mins by membrane vesicle transport assay
[2] = target: ATP-binding cassette sub-family C member 3 (Homo sapiens, UniProt O15438); assay: Inhibition of human MRP3 overexpressed in Sf9 insect cell membrane vesicles assessed as uptake of [3H]-estradiol-17beta-D-glucuronide in presence of ATP and GSH measured after 10 mins by membrane vesicle transport assay; assay type: ADME, cell-based
[3] = target: T1, ATP-binding cassette sub-family C member 4 (Homo sapiens, UniProt O15439); assay: Inhibition of human MRP4 overexpressed in Sf9 cell membrane vesicles assessed as uptake of [3H]-estradiol-17beta-D-glucuronide in presence of ATP and GSH measured after 20 mins by membrane vesicle transport assay; assay type: ADME, cell-based
T1 sequence (O15439 whole entry): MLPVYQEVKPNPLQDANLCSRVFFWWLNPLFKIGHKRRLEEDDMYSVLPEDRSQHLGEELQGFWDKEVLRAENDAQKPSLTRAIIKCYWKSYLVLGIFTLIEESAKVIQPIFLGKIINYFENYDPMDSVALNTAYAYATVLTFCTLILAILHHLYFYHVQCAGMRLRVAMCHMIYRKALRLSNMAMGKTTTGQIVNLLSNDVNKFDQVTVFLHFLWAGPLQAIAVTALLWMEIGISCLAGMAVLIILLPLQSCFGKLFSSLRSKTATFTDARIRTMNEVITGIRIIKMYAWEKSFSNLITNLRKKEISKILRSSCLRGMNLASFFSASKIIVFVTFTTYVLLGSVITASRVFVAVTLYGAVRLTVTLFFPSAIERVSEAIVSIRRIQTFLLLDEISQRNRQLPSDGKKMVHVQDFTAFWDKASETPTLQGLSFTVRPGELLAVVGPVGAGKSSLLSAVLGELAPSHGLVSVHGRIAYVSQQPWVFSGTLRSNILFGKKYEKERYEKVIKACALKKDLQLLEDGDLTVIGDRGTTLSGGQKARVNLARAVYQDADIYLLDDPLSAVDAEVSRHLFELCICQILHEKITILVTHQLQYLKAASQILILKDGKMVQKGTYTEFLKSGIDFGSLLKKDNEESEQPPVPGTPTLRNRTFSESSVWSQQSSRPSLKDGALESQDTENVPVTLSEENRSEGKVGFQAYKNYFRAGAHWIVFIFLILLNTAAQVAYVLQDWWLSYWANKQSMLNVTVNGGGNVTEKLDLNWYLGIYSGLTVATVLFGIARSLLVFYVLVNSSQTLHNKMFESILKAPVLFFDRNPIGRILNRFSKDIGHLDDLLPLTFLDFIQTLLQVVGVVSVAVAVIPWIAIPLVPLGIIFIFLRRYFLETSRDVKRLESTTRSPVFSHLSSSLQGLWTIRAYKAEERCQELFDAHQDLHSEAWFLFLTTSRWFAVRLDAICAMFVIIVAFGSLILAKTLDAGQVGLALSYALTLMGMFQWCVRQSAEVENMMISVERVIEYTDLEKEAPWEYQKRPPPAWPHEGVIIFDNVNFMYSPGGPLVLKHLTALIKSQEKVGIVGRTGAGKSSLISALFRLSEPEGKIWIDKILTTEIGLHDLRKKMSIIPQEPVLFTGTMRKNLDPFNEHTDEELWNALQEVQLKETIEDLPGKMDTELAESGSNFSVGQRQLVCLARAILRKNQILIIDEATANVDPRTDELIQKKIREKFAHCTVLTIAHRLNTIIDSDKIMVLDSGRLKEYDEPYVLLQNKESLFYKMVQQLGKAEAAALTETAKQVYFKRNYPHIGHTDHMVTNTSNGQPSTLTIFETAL

[4] = AUC in human at 0.2 mg, po QID after 6 hrs; assay type: ADME, organism-based; design: time < 6 hr, dose 0.2 mg, route oral; conditions: in vivo
[5] = Ratio of drug concentration at steady state in human at 0.2 mg, po QID after 6 hrs to IC50 for human BSEP overexpressed in Sf9 insect cells; assay type: ADME, organism-based; conditions: in vivo
[6] = Ratio of drug concentration at steady state in human at 0.2 mg, po QID after 6 hrs to IC50 for human MRP4 overexpressed in Sf9 insect cells; assay type: ADME, organism-based; conditions: in vivo
[7] = AUC in human at 1 to 40 mg, po QD after 24 hrs; assay type: ADME, organism-based; conditions: in vivo
[8] = Drug concentration at steady state in human at 1 to 40 mg, po QD after 24 hrs; assay type: ADME, organism-based; conditions: in vivo, read-out: Css
[9] = AUC in human at 10 mg, po after 24 hrs; assay type: ADME, organism-based; design: time < 24 hr, dose 10 mg, route oral; conditions: in vivo
[10] = Drug concentration at steady state in human at 10 mg, po after 24 hrs; assay type: ADME, organism-based; conditions: in vivo, read-out: Css
[11] = Ratio of drug concentration at steady state in human at 10 mg, po after 24 hrs to IC50 for human BSEP overexpressed in Sf9 insect cells; assay type: ADME, organism-based; conditions: in vivo
[12] = Ratio of drug concentration at steady state in human administered intraocularly as 1 drop QD of 0.03% solution after 24 hrs to IC50 for human BSEP overexpressed in Sf9 insect cells; assay type: ADME; conditions: topical_or_ocular
[13] = AUC in human at 9 mg, po QD after 24 hrs; assay type: ADME, organism-based; design: time < 24 hr, dose 9 mg, route oral; conditions: in vivo
[14] = Drug concentration at steady state in human at 9 mg, po QD after 24 hrs; assay type: ADME, organism-based; conditions: in vivo, read-out: Css
[15] = Ratio of drug concentration at steady state in human at 9 mg, po QD after 24 hrs to IC50 for human BSEP overexpressed in Sf9 insect cells; assay type: ADME, organism-based; conditions: in vivo
[16] = Ratio of drug concentration at steady state in human at 9 mg, po QD after 24 hrs to IC50 for human MRP3 overexpressed in Sf9 insect cells; assay type: ADME, organism-based; conditions: in vivo
[17] = Ratio of drug concentration at steady state in human at 9 mg, po QD after 24 hrs to IC50 for human MRP4 overexpressed in Sf9 insect cells; assay type: ADME, organism-based; conditions: in vivo
[18] = AUC in human at 5 to 10 mg, po QD after 24 hrs; assay type: ADME, organism-based; conditions: in vivo
[19] = Drug concentration at steady state in human at 5 to 10 mg, po QD after 24 hrs; assay type: ADME, organism-based; conditions: in vivo, read-out: Css
[20] = Ratio of drug concentration at steady state in human at 5 to 10 mg, po QD after 24 hrs to IC50 for human BSEP overexpressed in Sf9 insect cells; assay type: ADME, organism-based; conditions: in vivo
Homo sapiens = assay: Cardiotoxicity in human at 20 to 30 mg/day, po; assay type: toxicity
[21] = AUC in human at 20 to 80 mg, po QD after 24 hrs; assay type: ADME, organism-based; conditions: in vivo
[22] = Drug concentration at steady state in human at 20 to 80 mg, po QD after 24 hrs; assay type: ADME, organism-based; conditions: in vivo, read-out: Css
[23] = Ratio of drug concentration at steady state in human at 20 to 80 mg, po QD after 24 hrs to IC50 for human BSEP overexpressed in Sf9 insect cells; assay type: ADME, organism-based; conditions: in vivo
[24] = Ratio of drug concentration at steady state in human at 20 to 80 mg, po QD after 24 hrs to IC50 for human MRP3 overexpressed in Sf9 insect cells; assay type: ADME, organism-based; conditions: in vivo
[25] = AUC in human at 50 mg, po QD after 24 hrs; assay type: ADME, organism-based; design: dose 50 mg, time < 24 hr, route oral; conditions: in vivo
[26] = Drug concentration at steady state in human at 50 mg, po QD after 24 hrs; assay type: ADME, organism-based; conditions: in vivo, read-out: Css
[27] = Ratio of drug concentration at steady state in human at 50 mg, po QD after 24 hrs to IC50 for human BSEP overexpressed in Sf9 insect cells; assay type: ADME, organism-based; conditions: in vivo

Sequence of ATP-binding cassette sub-family C member 3 (O15438 whole entry): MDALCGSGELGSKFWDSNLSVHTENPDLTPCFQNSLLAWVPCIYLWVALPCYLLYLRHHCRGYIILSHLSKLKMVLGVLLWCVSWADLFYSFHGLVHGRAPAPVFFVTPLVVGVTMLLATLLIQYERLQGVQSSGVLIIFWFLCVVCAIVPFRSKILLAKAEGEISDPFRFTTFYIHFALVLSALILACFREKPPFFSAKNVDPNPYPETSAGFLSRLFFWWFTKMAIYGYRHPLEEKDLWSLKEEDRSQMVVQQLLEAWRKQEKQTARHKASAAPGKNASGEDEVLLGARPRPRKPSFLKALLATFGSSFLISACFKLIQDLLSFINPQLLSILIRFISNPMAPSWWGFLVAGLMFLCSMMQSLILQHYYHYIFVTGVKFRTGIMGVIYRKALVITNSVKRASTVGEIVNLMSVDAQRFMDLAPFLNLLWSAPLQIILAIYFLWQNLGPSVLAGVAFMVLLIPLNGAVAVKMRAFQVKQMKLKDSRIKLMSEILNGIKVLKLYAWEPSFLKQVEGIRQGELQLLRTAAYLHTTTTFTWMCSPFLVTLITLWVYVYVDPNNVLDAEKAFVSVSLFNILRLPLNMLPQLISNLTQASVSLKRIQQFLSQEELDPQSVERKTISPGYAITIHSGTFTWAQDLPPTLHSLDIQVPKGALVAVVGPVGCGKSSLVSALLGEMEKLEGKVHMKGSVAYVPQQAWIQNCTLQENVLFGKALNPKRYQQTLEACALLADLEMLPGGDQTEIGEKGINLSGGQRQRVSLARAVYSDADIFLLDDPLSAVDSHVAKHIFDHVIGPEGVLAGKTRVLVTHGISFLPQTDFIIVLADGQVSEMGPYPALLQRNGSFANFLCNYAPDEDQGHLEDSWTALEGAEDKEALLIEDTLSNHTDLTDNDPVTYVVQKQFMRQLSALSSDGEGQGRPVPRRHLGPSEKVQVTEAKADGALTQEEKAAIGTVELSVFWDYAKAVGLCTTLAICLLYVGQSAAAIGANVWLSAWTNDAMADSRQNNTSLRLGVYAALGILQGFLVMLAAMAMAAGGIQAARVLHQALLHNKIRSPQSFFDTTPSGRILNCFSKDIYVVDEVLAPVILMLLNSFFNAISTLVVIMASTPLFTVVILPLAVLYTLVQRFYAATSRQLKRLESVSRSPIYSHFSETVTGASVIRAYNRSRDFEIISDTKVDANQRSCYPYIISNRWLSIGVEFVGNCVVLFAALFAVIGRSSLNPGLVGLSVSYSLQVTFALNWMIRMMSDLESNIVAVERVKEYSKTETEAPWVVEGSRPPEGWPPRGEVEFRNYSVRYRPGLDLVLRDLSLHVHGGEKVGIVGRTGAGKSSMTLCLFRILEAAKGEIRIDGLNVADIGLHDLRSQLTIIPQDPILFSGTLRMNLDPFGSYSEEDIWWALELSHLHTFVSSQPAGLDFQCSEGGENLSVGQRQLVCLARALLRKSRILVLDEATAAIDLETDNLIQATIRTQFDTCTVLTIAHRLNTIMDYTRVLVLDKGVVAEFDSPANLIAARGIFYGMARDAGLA
Sequence of Bile salt export pump (O95342 whole entry): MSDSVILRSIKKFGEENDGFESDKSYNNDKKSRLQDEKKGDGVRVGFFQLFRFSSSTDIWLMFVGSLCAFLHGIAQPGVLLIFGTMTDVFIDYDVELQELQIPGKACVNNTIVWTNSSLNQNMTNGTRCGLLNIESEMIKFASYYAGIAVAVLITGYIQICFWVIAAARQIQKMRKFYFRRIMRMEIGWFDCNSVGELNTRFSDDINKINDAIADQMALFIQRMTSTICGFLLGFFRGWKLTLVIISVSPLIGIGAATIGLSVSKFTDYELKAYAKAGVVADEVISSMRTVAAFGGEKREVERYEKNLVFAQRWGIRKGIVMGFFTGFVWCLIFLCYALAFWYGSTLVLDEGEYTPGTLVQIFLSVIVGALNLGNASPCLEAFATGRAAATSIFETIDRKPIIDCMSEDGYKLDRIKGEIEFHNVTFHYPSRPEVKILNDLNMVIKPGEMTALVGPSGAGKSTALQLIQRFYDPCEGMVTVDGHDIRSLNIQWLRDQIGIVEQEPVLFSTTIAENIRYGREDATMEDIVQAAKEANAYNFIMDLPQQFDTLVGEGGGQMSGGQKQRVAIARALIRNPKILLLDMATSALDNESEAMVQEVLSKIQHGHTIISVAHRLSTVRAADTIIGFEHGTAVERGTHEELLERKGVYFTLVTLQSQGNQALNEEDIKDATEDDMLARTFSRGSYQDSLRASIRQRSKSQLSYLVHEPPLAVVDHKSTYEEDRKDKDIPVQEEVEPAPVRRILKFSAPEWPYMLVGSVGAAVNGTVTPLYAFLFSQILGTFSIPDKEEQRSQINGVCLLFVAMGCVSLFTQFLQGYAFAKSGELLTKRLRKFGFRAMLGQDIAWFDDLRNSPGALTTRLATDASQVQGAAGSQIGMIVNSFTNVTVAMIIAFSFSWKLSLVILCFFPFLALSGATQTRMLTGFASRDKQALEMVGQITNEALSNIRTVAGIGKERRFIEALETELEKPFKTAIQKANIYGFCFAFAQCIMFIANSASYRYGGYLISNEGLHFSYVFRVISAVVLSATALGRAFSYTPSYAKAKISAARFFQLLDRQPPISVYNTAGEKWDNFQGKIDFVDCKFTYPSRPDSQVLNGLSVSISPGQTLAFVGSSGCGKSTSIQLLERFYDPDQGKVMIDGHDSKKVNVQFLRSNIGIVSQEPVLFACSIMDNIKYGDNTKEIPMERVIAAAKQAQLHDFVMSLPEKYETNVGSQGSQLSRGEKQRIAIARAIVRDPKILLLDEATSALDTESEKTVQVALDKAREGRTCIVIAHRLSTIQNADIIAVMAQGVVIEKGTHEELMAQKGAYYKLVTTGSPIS
Sequence of ATP-binding cassette sub-family C member 2 (Q92887 whole entry): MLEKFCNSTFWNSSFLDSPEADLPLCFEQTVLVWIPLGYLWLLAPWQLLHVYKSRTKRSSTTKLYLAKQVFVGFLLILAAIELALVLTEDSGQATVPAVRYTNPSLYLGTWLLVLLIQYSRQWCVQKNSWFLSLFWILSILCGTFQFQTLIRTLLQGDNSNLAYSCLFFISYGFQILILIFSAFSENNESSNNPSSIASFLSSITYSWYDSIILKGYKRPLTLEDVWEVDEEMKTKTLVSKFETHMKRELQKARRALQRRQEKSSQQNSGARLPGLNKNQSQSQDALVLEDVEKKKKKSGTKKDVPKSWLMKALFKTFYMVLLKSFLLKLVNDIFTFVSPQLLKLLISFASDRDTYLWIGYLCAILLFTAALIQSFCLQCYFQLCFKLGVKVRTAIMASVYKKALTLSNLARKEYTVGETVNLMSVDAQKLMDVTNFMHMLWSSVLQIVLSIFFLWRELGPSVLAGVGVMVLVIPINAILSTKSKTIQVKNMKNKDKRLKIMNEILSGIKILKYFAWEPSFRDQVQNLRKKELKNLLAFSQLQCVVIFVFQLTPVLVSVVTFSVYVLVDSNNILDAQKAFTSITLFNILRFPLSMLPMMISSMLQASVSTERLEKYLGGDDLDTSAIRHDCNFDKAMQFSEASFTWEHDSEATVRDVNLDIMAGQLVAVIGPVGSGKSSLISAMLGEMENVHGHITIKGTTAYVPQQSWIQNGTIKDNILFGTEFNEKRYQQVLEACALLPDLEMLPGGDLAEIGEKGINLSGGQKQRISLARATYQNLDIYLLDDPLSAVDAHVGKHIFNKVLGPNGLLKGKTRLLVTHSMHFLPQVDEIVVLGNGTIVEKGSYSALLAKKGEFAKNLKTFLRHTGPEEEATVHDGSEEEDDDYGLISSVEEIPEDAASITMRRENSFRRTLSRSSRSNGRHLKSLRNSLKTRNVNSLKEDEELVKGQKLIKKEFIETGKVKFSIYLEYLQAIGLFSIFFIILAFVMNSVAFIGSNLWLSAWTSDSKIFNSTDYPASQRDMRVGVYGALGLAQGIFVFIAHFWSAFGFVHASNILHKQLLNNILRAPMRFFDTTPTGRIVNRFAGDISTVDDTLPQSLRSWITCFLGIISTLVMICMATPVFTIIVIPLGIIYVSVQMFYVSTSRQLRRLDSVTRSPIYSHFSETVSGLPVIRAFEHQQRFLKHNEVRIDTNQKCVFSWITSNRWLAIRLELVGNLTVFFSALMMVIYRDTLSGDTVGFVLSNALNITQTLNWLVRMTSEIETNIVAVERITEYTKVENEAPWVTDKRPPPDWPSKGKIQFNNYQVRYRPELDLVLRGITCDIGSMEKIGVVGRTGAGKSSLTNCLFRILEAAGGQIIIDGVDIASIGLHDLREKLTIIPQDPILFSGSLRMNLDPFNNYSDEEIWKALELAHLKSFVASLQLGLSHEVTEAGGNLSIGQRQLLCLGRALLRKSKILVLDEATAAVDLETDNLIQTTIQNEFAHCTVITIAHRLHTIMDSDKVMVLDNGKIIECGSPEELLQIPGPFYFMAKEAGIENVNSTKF

With CCCC[C@](C)(O)C/C=C/[C@H]1[C@H](O)CC(=O)[C@@H]1CCCCCCC(=O)OC as the compound, how does the pIC50 (Bile salt export pump) read?
The pIC50 was 4.56.

And the pIC50 [1]?
Its pIC50 is < 3.88.

And the pIC50 [2]?
The pIC50 was < 3.88.

And the pIC50 [3]?
The pIC50 was 4.34.

What about the AUC at 6 h [4] of the same compound?
Its AUC at 6 h is 0.001 µM·h.

What about the Ratio [5] of the same compound?
The Ratio was 0.00001.

And the Ratio [6]?
Its Ratio is 0.

What does the source list for Cl.OCCN1CCN(CCCN2c3ccccc3Sc3ccc(C(F)(F)F)cc32)CC1?
pIC50 (Bile salt export pump): 4.06; pIC50 [1]: < 3.88; pIC50 [2]: < 3.88; pIC50 [3]: < 3.88; AUC at 24 h [7]: 0.03 µM·h; concentration at 24 h [8]: 1 nM

With O=C1[C@H](CC[C@H](O)c2ccc(F)cc2)[C@@H](c2ccc(O)cc2)N1c1ccc(F)cc1 [EZETIMIBE] as the compound, how does the pIC50 (Bile salt export pump) read?
Its pIC50 is 4.25.

And the pIC50 [1]?
The pIC50 was < 3.88.

What about the pIC50 [2] of the same compound?
The pIC50 was < 3.88.

And the pIC50 [3]?
Its pIC50 is < 3.88.

What about the AUC at 24 h [9] of the same compound?
Its AUC at 24 h is 3.2 µM·h.

What about the concentration at 24 h [10] of the same compound?
Its concentration at 24 h is 134 nM.

And the Ratio [11]?
Its Ratio is 0.002.

With CCNC(=O)CCC/C=C\C[C@@H]1[C@@H](/C=C/[C@@H](O)CCc2ccccc2)[C@H](O)C[C@@H]1O [BIMATOPROST] as the compound, how does the pIC50 (Bile salt export pump) read?
Its pIC50 is 4.39.

What about the pIC50 [1] of the same compound?
Its pIC50 is < 3.88.

And the pIC50 [2]?
The pIC50 was < 3.88.

And the pIC50 [3]?
Its pIC50 is < 3.88.

What about the Ratio [12] of the same compound?
Its Ratio is 2e-7.

Which results are given for CCCC1O[C@@H]2C[C@H]3[C@@H]4CCC5=CC(=O)C=C[C@]5(C)[C@H]4[C@@H](O)C[C@]3(C)[C@]2(C(=O)CO)O1 (some centres undefined) [BUDESONIDE]?
pIC50 (Bile salt export pump): 4.34; pIC50 [1]: < 3.88; pIC50 [2]: 4.26; pIC50 [3]: 4.43; AUC at 24 h [13]: 0.0151 µM·h; concentration at 24 h [14]: 0.629 nM; Ratio [15]: 0.00001; Ratio [16]: 0; Ratio [17]: 0

With CC(C)(C)C(=O)OCOP(=O)(COCCn1cnc2c(N)ncnc21)OCOC(=O)C(C)(C)C [ADEFOVIR DIPIVOXIL] as the compound, how does the pIC50 (Bile salt export pump) read?
Its pIC50 is 4.34.

And the pIC50 [1]?
The pIC50 was < 3.88.

And the pIC50 [2]?
The pIC50 was < 3.88.

What about the pIC50 [3] of the same compound?
Its pIC50 is < 3.88.

And the AUC at 24 h [18]?
The AUC at 24 h was 0.765 µM·h.

And the concentration at 24 h [19]?
The concentration at 24 h was 32 nM.

And the Ratio [20]?
The Ratio was 0.00069.

With COc1ccc(CCN2CCC(Nc3nc4ccccc4n3Cc3ccc(F)cc3)CC2)cc1 [ASTEMIZOLE] as the compound, how does the pIC50 [1] read?
Its pIC50 is < 3.88.

And the pIC50 [2]?
The pIC50 was < 3.88.

What about the pIC50 [3] of the same compound?
The pIC50 was < 3.88.

And the Activity (Homo sapiens)?
Its Activity is “Toxic”.

What about the AUC at 24 h [9] of the same compound?
The AUC at 24 h was 0.024 µM·h.

With CC(C)n1c(/C=C/C(O)CC(O)CC(=O)O)c(-c2ccc(F)cc2)c2ccccc21 (centres undefined) [FLUVASTATIN] as the compound, how does the pIC50 [2] read?
Its pIC50 is 4.24.

What about the pIC50 [3] of the same compound?
The pIC50 was < 3.88.

What about the AUC at 24 h [21] of the same compound?
The AUC at 24 h was 1.49 µM·h.

What about the concentration at 24 h [22] of the same compound?
Its concentration at 24 h is 62 nM.

What about the Ratio [23] of the same compound?
The Ratio was 0.002.

What about the Ratio [24] of the same compound?
The Ratio was 0.001.

With CC(O)(CS(=O)(=O)c1ccc(F)cc1)C(=O)Nc1ccc(C#N)c(C(F)(F)F)c1 (centres undefined) [BICALUTAMIDE] as the compound, how does the pIC50 (Bile salt export pump) read?
Its pIC50 is 4.10.

What about the pIC50 [1] of the same compound?
Its pIC50 is < 3.88.

What about the pIC50 [2] of the same compound?
Its pIC50 is < 3.88.

And the pIC50 [3]?
Its pIC50 is < 3.88.

And the AUC at 24 h [25]?
The AUC at 24 h was 502 µM·h.

What about the concentration at 24 h [26] of the same compound?
The concentration at 24 h was 20900 nM.

What about the Ratio [27] of the same compound?
The Ratio was 0.263.
